Source: ChEMBL document CHEMBL1201862, “PubChem BioAssay data set” (2004)
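Method: 48-hour compound exposure of cells in 96-well plates, five concentrations, linear interpolation of endpoints. The concentration for 50% growth inhibition is given as GI50.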 Activity calls are given as the source filed them. Rule as the data show it: active = GI50 up to about 1.1 µM and inactive = higher.

Key:
Assay in all cases: inhibition of tumour cell growth, NCI panel, 48 h
[1] = test system: XF498
[2] = test system: DLD-1
[3] = test system: IGROV-1
[4] = test system: MOLT-4
[5] = test system: NCI-H226
[6] = test system: M19-MEL
[7] = test system: RPMI-8226
[8] = test system: SNB-19
[9] = test system: HOP-62
[10] = test system: LXFL 529
[11] = test system: RXF 393
[12] = test system: SF-268
[13] = test system: SR
[14] = test system: KM12
[15] = test system: SF-539
[16] = test system: ACHN
[17] = test system: OVCAR-8
[18] = test system: RXF 631
[19] = test system: OVCAR-5
[20] = test system: HL-60
[21] = test system: SK-MEL-5
[22] = test system: HOP-92
[23] = test system: SW-620
[24] = test system: A498
[25] = test system: OVCAR-4
[26] = test system: SK-MEL-28
[27] = test system: EKVX
[28] = test system: CCRF-CEM
[29] = test system: HCT-15
[30] = test system: NCI-H23
[31] = test system: LOX IMVI
[32] = test system: CAKI-1
[33] = test system: SNB-78
[34] = test system: SN12C
[35] = test system: OVCAR-3
[36] = test system: KM-20L2
[37] = test system: UACC-62
[38] = test system: HT-29
[39] = test system: COLO 205
[40] = test system: SF-295
[41] = test system: HCT-116
[42] = test system: DMS-273
[43] = test system: UACC-257
[44] = test system: UO-31
[45] = test system: NCI-H460
[46] = test system: Malme-3M
[47] = test system: TK-10
[48] = test system: U-251
[49] = test system: SK-MEL-2
[50] = test system: DMS-114
[51] = test system: A549
[52] = test system: 786-0
[53] = test system: M14
[54] = test system: K562
[55] = test system: HCC 2998
[56] = test system: NCI-H522
[57] = test system: SNB-75
[58] = test system: SK-OV-3

CCOc1ccc(/C=C\c2cc(OC)c(OC)c(OC)c2)cc1
GI50 [1]: 0.453 nM (active)
GI50 [2]: 19.4 nM (active)
GI50 [3]: 200 nM (active)
GI50 [4]: 0.634 nM (active)
GI50 [5]: 2.18 nM (active)
GI50 [6]: 19.1 nM (active)
GI50 [7]: 0.443 nM (active)
GI50 [8]: 0.165 nM (active)
GI50 [9]: 0.964 nM (active)
GI50 [10]: < 0.1 nM (active)
GI50 [11]: < 0.1 nM (active)
GI50 [12]: 0.625 nM (active)
GI50 [13]: 0.931 nM (active)
GI50 [14]: 7.03 nM (active)
GI50 [15]: 0.102 nM (active)
GI50 [16]: 10 nM (active)
GI50 [17]: 0.456 nM (active)
GI50 [18]: 367 nM (active)
GI50 [19]: 22100 nM (inactive)
GI50 [20]: < 0.1 nM (active)
GI50 [21]: 12 nM (active)
GI50 [22]: 0.828 nM (active)
GI50 [23]: < 0.1 nM (active)
GI50 [24]: 1.24 nM (active)
GI50 [25]: 114 nM (active)
GI50 [26]: 0.235 nM (active)
GI50 [27]: 735 nM (active)
GI50 [28]: 10 nM (active)
GI50 [29]: 27 nM
GI50 [30]: 27 nM (active)
GI50 [31]: 0.291 nM (active)
GI50 [32]: 10 nM (active)
GI50 [33]: 0.745 nM (active)
GI50 [34]: 1.29 nM (active)
GI50 [35]: 0.303 nM (active)
GI50 [36]: 0.241 nM (active)
GI50 [37]: 10 nM (active)
GI50 [38]: 0.131 nM (active)
GI50 [39]: 12.7 nM (active)
GI50 [40]: < 0.1 nM (active)
GI50 [41]: 0.33 nM (active)
GI50 [42]: 15.3 nM (active)
GI50 [43]: 10 nM (active)
GI50 [44]: 0.41 nM (active)
GI50 [45]: 0.674 nM (active)
GI50 [46]: 1.39 nM (active)
GI50 [47]: 29600 nM (inactive)
GI50 [48]: 0.172 nM (active)
GI50 [49]: 3.78 nM (active)
GI50 [50]: 1.18 nM (active)
GI50 [51]: 0.6 nM (active)
GI50 [52]: 0.216 nM (active)
GI50 [53]: 10 nM (active)
GI50 [54]: < 0.1 nM (active)
GI50 [55]: 68.5 nM (active)
GI50 [56]: < 0.1 nM (active)
GI50 [57]: < 0.1 nM (active)

CC1CC(C)C2OC2(C)C[C@H](C)C(=O)NC(C)C(=O)N(C)[C@H](Cc2c(Br)[nH]c3ccccc23)C(=O)N[C@@H](c2ccc(O)cc2)CC(=O)O1 (stereo not given in full)
GI50 [1]: 838 nM (active)
GI50 [2]: 3370 nM (inactive)
GI50 [3]: 272 nM (active)
GI50 [4]: 1340 nM (inactive)
GI50 [5]: 373 nM (active)
GI50 [6]: 161 nM (active)
GI50 [7]: 35.5 nM (active)
GI50 [8]: 66.1 nM (active)
GI50 [9]: 330 nM (active)
GI50 [10]: 221 nM (active)
GI50 [11]: 1470 nM (inactive)
GI50 [12]: 336 nM (active)
GI50 [13]: 277 nM (active)
GI50 [14]: 249 nM (active)
GI50 [15]: 111 nM (active)
GI50 [16]: 2160 nM (inactive)
GI50 [17]: 4890 nM (inactive)
GI50 [18]: 760 nM (active)
GI50 [19]: 824 nM (active)
GI50 [20]: 72.3 nM (active)
GI50 [21]: 93.3 nM (active)
GI50 [22]: 352 nM (active)
GI50 [23]: < 26.2 nM (active)
GI50 [24]: 522 nM (active)
GI50 [25]: 220 nM (active)
GI50 [26]: 839 nM (active)
GI50 [27]: 2020 nM (inactive)
GI50 [28]: 41.7 nM (active)
GI50 [29]: 39300 nM
GI50 [30]: 902 nM (active)
GI50 [31]: 46.6 nM (active)
GI50 [32]: 1090 nM (active)
GI50 [33]: 309 nM (active)
GI50 [34]: 776 nM (active)
GI50 [35]: 490 nM (active)
GI50 [36]: 150 nM (active)
GI50 [37]: 2500 nM (inactive)
GI50 [38]: 106 nM (active)
GI50 [39]: 21.4 nM (active)
GI50 [40]: 1220 nM (inactive)
GI50 [41]: 39.6 nM (active)
GI50 [42]: 24.1 nM (active)
GI50 [43]: 418 nM (active)
GI50 [44]: 10000 nM (inactive)
GI50 [45]: 38.8 nM (active)
GI50 [46]: 527 nM (active)
GI50 [47]: 741 nM (active)
GI50 [48]: 40.4 nM (active)
GI50 [49]: 33 nM (active)
GI50 [50]: 34.8 nM (active)
GI50 [51]: 280 nM (active)
GI50 [52]: 1430 nM (inactive)
GI50 [53]: 729 nM (active)
GI50 [54]: 703 nM (active)
GI50 [55]: 110 nM (active)
GI50 [58]: 433 nM (active)
GI50 [56]: 50.4 nM (active)
GI50 [57]: 142 nM (active)
